From US20020076728A1, “Engineering affinity ligands for macromolecules” (priority 1997, published 2002)
Several values for one entry are separate records, joined by “and”; a condition that tells them apart may be missing. Identical values can stand only once. Values belong to the molecule of their own block, whether it stands above or below them. Ends that are not written are not given here.

Legend:
tPA = tPA (Homo sapiens, UniProt P00750); assay: 15-amino acid segment of #109 bound to chromatographic support, tPA binding; details: bound to a chromatographic support; initial studies
Sequence of tPA (P00750 36-562): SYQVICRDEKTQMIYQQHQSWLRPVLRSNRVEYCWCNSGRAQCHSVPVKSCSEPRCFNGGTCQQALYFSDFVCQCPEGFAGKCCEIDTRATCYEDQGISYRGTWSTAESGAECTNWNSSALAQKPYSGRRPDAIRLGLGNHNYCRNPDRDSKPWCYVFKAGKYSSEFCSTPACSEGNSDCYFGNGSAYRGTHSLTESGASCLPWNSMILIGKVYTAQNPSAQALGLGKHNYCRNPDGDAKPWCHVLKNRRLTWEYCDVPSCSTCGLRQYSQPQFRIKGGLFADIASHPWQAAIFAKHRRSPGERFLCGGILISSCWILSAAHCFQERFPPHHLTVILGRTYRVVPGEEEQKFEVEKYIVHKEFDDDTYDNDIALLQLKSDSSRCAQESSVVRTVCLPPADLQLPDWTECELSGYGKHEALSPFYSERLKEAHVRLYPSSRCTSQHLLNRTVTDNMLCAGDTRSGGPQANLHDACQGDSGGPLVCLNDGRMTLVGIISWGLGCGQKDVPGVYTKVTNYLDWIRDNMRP
Excerpt: As noted above, almost all of the variegation in amino acid positions used in building the CMTI library occurred between two cyteines at positions 3 and 10 of CMTI-I (see Table 3). In the parental CMTI protein, these cysteines form disulfide bonds with other cysteine residues elsewhere in the protein (see SEQ ID NO: 1), however with the successful isolation of affinity ligands from the CMTI library, a secondary library was conceptualized which was based on variegating a truncated 15-amino acid segment of the isolate #109 (see amino acids 1-15 of SEQ ID NO: 12). If the C3 and C10 cysteines of these members formed a disulfide bond, then a constrained loop having tPA binding properties might be obtained.

M13 phage = assay: Stability of M13 in various organic solvents (phage survival); details: for surviving phage: incubation for 20 minutes with 80% solvent
Excerpt: Thus, if phage display libraries are used, it is of interest to determine whether organic solvents disrupt the phage.

[1] = side-chain ionizable group of the amino acid type in proteins; cited from earlier work
[2] = target: T1, recombinant human tissue-type plasminogen activator (human, UniProt P00750 36-562); assay: peptide bound to a chromatographic support
T1 construct: Bought; immobilised on Reacti-Gel agarose beads for phage work, in solution for column tests; also called tPA
T1 sequence (P00750 36-562 limits assumed): as the sequence (P00750 36-562) above

[3] = 10% solvent by volume in Luria broth
[4] = 20% solvent by volume in Luria broth
[5] = 40% solvent by volume in Luria broth
[6] = 80% solvent by volume in Luria broth
[7] = 2% solvent by volume in Luria broth
[8] = 5% solvent by volume in Luria broth

Molecule: 15-amino acid segment derived from affinity ligand isolate #109: truncated 15-amino acid segment of isolate #109 (amino acids 1-15 of SEQ ID NO: 12), C3-C10 disulfide loop (RLCPKTDLGCMKDSD; also: C3-C10 disulfide stated only as a possibility)
binding of immobilized loop to tPA (tPA): bound to tPA

Molecule: CC#N [ACN, acetonitrile]
Survival after 20 min. (%) (M13 phage; [3]): 84%
Survival after 60 min. (%) (M13 phage; [3]): 74%
Survival after 20 min. (%) (M13 phage; [4]): 80%
Survival after 60 min. (%) (M13 phage; [4]): 91%
Survival after 20 min. (%) (M13 phage; [5]): 92%
Survival after 60 min. (%) (M13 phage; [5]): 89%
Survival after 20 min. (%) (M13 phage; [6]): 30% and 37%
Survival after 60 min. (%) (M13 phage; [6]): 8% and 3%

Molecule: N=C(N)NCCC[C@H](N)C(=O)O [Arg]
pKa range [1]: 12.0

Molecule: N[C@@H](CC(=O)O)C(=O)O [Asp, aspartic acid]
pKa range [1]: 3.9-4.0

Molecule: N[C@@H](CS)C(=O)O [Cys (not in disulfide)]
pKa range [1]: 9.0-9.5

Molecule: CN(C)C=O [DMF, dimethylformamide]
surviving phage (M13 phage): no surviving phage

Molecule: C[S+](C)[O-] [DMSO, dimethylsulfoxide]
Survival after 20 min. (%) (M13 phage; [7]): 84%
Survival after 60 min. (%) (M13 phage; [7]): 89%
Survival after 20 min. (%) (M13 phage; [8]): 68%
Survival after 60 min. (%) (M13 phage; [8]): 86%
Survival after 20 min. (%) (M13 phage; [3]): 96%
Survival after 60 min. (%) (M13 phage; [3]): 86%
Survival after 20 min. (%) (M13 phage; [4]): 73%
Survival after 60 min. (%) (M13 phage; [4]): 82%
Survival after 20 min. (%) (M13 phage; [6]): 1%
Survival after 60 min. (%) (M13 phage; [6]): >1%

Molecule: CCO [EtOH, ethanol]
surviving phage (M13 phage): no surviving phage

Molecule: N[C@@H](CCC(=O)O)C(=O)O [Glu]
pKa range [1]: 4.3-4.5

Molecule: N[C@@H](Cc1c[nH]cn1)C(=O)O [His, Histidine]
pKa range [1]: 6.0-7.0

Molecule: CC(C)O [IPA, isopropyl alcohol]
surviving phage (M13 phage): no surviving phage

Molecule: NCCCC[C@H](N)C(=O)O [Lys]
pKa range [1]: 10.4-11.1

Molecule: CO [MeOH, methanol]
Survival after 20 min. (%) (M13 phage; [3]): 110%
Survival after 60 min. (%) (M13 phage; [3]): 80%
Survival after 20 min. (%) (M13 phage; [4]): 93%
Survival after 60 min. (%) (M13 phage; [4]): 84%
Survival after 20 min. (%) (M13 phage; [5]): 92%
Survival after 60 min. (%) (M13 phage; [5]): 84%

binding result [2]: binds
B1: 15-amino acid segment derived from affinity ligand isolate #109 (peptide)
peptide: RLCPKTDLGCMKDSD
modifications: also: C3-C10 disulfide stated only as a possibility
notes: also called truncated 15-amino acid segment of the isolate #109; C3-C10 loop
